The source of these data is PubChem BioAssay AID330 (DTP/NCI, 2004).

The structures appear in SMILES notation. “And” between values parts separate entries of the source, which are not always exact repeats. Equal entries are not always repeated. Toxic doses and inconclusive results are not listed.

In the experiment the test system is P388 leukemia ip, CD2F1 mice, survival T/C. Put plainly: NCI In Vivo Anticancer Drug Screen. Data for tumor model P388 Leukemia (intraperitoneal) in CD2F1 (CDF1) mice. The note with it: endpoint: median survival time, higher = longer survival. In a few lines: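 Mice carrying the transplanted tumor received test compound or vehicle. Survival was recorded in each group, and the value is the treated-group measurement divided by that of the vehicle-treated control group.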

Where [1] appears, read: dose: 50.0 mg/kg/injection, schedule: Q01DX005 (ip), vehicle: saline with Tween-80.
The mark [2] stands for this setting: dose: 100.0 mg/kg/injection, schedule: Q01DX005 (ip), vehicle: saline with Tween-80.
Setting [3] is: dose: 200.0 mg/kg/injection, schedule: Q01DX005 (ip), vehicle: saline with Tween-80.
The mark [4] stands for this setting: dose: 12.5 mg/kg/injection, schedule: Q01DX009 (ip), vehicle: saline.
Where [5] appears, read: dose: 25.0 mg/kg/injection, schedule: Q01DX009 (ip), vehicle: saline.
Setting [6] is: dose: 50.0 mg/kg/injection, schedule: Q01DX009 (ip), vehicle: saline with Tween-80.
Where [7] appears, read: dose: 100.0 mg/kg/injection, schedule: Q01DX009 (ip), vehicle: saline with Tween-80.
[8] abbreviates: dose: 200.0 mg/kg/injection, schedule: Q01DX009 (ip), vehicle: saline with Tween-80.
Setting [9] is: dose: 100.0 mg/kg/injection, schedule: Q04DX002 (ip), vehicle: saline with Tween-80.
Where [10] appears, read: dose: 6.25 mg/kg/injection, schedule: Q01DX009 (ip), vehicle: saline.
[11] abbreviates: dose: 60.0 mg/kg/injection, schedule: Q01DX005 (ip), vehicle: saline with Tween-80.
The mark [12] stands for this setting: dose: 120.0 mg/kg/injection, schedule: Q01DX005 (ip), vehicle: saline with Tween-80.
The mark [13] stands for this setting: dose: 25.0 mg/kg/injection, schedule: Q01DX009 (ip), vehicle: saline with Tween-80.
The mark [14] stands for this setting: dose: 240.0 mg/kg/injection, schedule: Q01DX005 (ip), vehicle: saline with Tween-80.

`CC(O)CN1C(=O)c2cccc3cc([N+](=O)[O-])cc(c23)C1=O` (stereo not given): the T/C was 96 % of control under setting [1], 104 % of control under setting [2] and 104 % of control under setting [3].

Regarding `CSc1cnnc2ccccc12`, the T/C is 100 % of control and 95 % of control (dose: 12.5 mg/kg/injection, schedule: Q01DX009 (ip), vehicle: Klucel (hydroxypropylcellulose) (HPC)); 100 % of control and 109 % of control and 88 % of control (dose: 25.0 mg/kg/injection, schedule: Q01DX009 (ip), vehicle: Klucel (hydroxypropylcellulose) (HPC)); 100 % of control and 87 % of control (dose: 50.0 mg/kg/injection, schedule: Q01DX009 (ip), vehicle: Klucel (hydroxypropylcellulose) (HPC)).

`COc1cc(Cc2nc3n(O)cc(C)nc-3c(=N)n2)cc(OC)c1OC`: the T/C is, setting by setting: under setting [4], 99 % of control; under setting [5], 105 % of control; (dose: 50.0 mg/kg/injection, schedule: Q01DX009 (ip), vehicle: saline) 108 % of control.

For the compound `CCOC(=O)N(O)c1ccc(C(N)=O)cc1`, the T/C was 100 % of control under setting [6], 97 % of control under setting [7] and 108 % of control under setting [8].

With `Oc1ccccc1C=NCCC[OH2+].Oc1ccccc1C=NCCC[OH2+].[Cu].[Cu]`, the T/C was 103 % of control (dose: 25.0 mg/kg/injection, schedule: Q01DX005 (ip), vehicle: saline with Tween-80); 100 % of control and 102 % of control and 104 % of control under setting [1]; 109 % of control under setting [2].

As to `NC(=S=O)C(N)=S=O`, the T/C under setting [1] is 103 % of control and 110 % of control; the T/C under setting [2] was 112 % of control and 117 % of control.

On to `CSCNc1ncnc2c1ncn2C1OC(CO)C(O)C1O` (stereo not given), for which the T/C under setting [9] is 120 % of control.

Take `CNS(=O)(=O)c1ccc(Cl)cc1`: the T/C is 94 % of control (dose: 3.13 mg/kg/injection, schedule: Q01DX009 (ip), vehicle: saline); 99 % of control under setting [10]; 98 % of control under setting [4]; 98 % of control under setting [5].

Take `COc1cc(C(CC(C)=O)c2cc3c(cc2OC(C)=O)OCO3)cc(OC)c1OC(C)=O` (stereo not given): the T/C runs as follows: under setting [11], 105 % of control; under setting [12], 89 % of control.

`COc1cc(CC2C(=O)OCC2Cc2ccc3c(c2)OCO3)cc(OC)c1OC` (stereo not given): the T/C was 98 % of control (dose: 12.5 mg/kg/injection, schedule: Q01DX009 (ip), vehicle: saline with Tween-80); 104 % of control under setting [13]; 100 % of control under setting [6]; 94 % of control (dose: 50.0 mg/kg/injection, schedule: Q04DX002 (ip), vehicle: acetone); 103 % of control (dose: 50.0 mg/kg/injection, schedule: Q04DX002 (ip), vehicle: saline with Tween-80); 100 % of control (dose: 100.0 mg/kg/injection, schedule: Q04DX002 (ip), vehicle: acetone). For the same compound, the T/C is, setting by setting: under setting [9], 100 % of control; (dose: 200.0 mg/kg/injection, schedule: Q04DX002 (ip), vehicle: acetone) 100 % of control; (dose: 200.0 mg/kg/injection, schedule: Q04DX002 (ip), vehicle: saline with Tween-80) 100 % of control.

As to `COc1ccc(/C=N/N2CN(C(C)C(=O)O)B(N(CCO)CCO)N=C2N)cc1OC` (stereo not given), the T/C by setting is: (dose: 60.0 mg/kg/injection, schedule: Q01DX005 (ip), vehicle: saline) 104 % of control; (dose: 120.0 mg/kg/injection, schedule: Q01DX005 (ip), vehicle: saline) 107 % of control; (dose: 240.0 mg/kg/injection, schedule: Q01DX005 (ip), vehicle: saline) 107 % of control.

Turning to `CCc1nc(N)nc(N)c1-c1ccc(NCCN)c([N+](=O)[O-])c1`, the T/C is, setting by setting: under setting [11], 113 % of control; under setting [12], 116 % of control; under setting [14], 116 % of control.

In the case of `OCC1OC2OC3C(CO)OC(OC4C(CO)OC(OC5C(CO)OC(OC6C(CO)OC(OC7C(CO)OC(OC1C(O)C2O)C(O)C7O)C(O)C6O)C(O)C5O)C(O)C4O)C(O)C3O` (stereo not given) (tested in a mixture with another compound), the T/C (dose: 3.12 mg/kg/injection, schedule: Q01DX009 (ip), vehicle: water) is 105 % of control; the T/C (dose: 6.25 mg/kg/injection, schedule: Q01DX009 (ip), vehicle: water) was 108 % of control; the T/C (dose: 12.5 mg/kg/injection, schedule: Q01DX009 (ip), vehicle: water) is 105 % of control; the T/C (dose: 25.0 mg/kg/injection, schedule: Q01DX009 (ip), vehicle: water) was 122 % of control and 111 % of control and 115 % of control; the T/C (dose: 50.0 mg/kg/injection, schedule: Q01DX009 (ip), vehicle: water) was 109 % of control and 111 % of control and 123 % of control; the T/C (dose: 200.0 mg/kg/injection, schedule: Q01DX009 (ip), vehicle: water) is 164 % of control. For the same compound, the T/C (dose: 400.0 mg/kg/injection, schedule: Q01DX009 (ip), vehicle: water) was 250 % of control.

As to `CC(=O)[O][Hg][c]1s[c]([Hg][O]C(C)=O)[c]([Hg][O]C(C)=O)[c]1[Hg][O]C(C)=O`, the T/C is 120 % of control (dose: 3.0 mg/kg/injection, schedule: Q01DX009 (ip), vehicle: saline with Tween-80); 109 % of control (dose: 4.0 mg/kg/injection, schedule: Q01DX009 (ip), vehicle: saline with Tween-80); 104 % of control (dose: 6.0 mg/kg/injection, schedule: Q01DX009 (ip), vehicle: saline with Tween-80); 90 % of control (dose: 9.0 mg/kg/injection, schedule: Q01DX009 (ip), vehicle: saline with Tween-80).

Turning to `Cc1ccc(CC(=O)O)c2c1C(=O)CC2`, the T/C is 92 % of control (dose: 12.5 mg/kg/injection, schedule: Q01DX009 (ip), vehicle: distilled water + Tween-80); 90 % of control (dose: 25.0 mg/kg/injection, schedule: Q01DX009 (ip), vehicle: distilled water + Tween-80); 90 % of control (dose: 50.0 mg/kg/injection, schedule: Q01DX009 (ip), vehicle: distilled water + Tween-80); 90 % of control (dose: 100.0 mg/kg/injection, schedule: Q01DX009 (ip), vehicle: distilled water + Tween-80); 90 % of control (dose: 200.0 mg/kg/injection, schedule: Q01DX009 (ip), vehicle: distilled water + Tween-80).

Regarding `CSC(=S)N/N=C\C(C)=N/N=C(N)N`, the T/C reads like this: (dose: 3.12 mg/kg/injection, schedule: Q01DX009 (ip), vehicle: saline) 101 % of control; under setting [10], 101 % of control; under setting [4], 107 % of control.

Consider `O=C(Nc1ccc2c(c1)OCO2)O/N=C1\C(=O)Nc2ccccc21`, for which the T/C (dose: 25.0 mg/kg/injection, schedule: Q04DX003 (ip), vehicle: saline with Tween-80) is 100 % of control; the T/C (dose: 50.0 mg/kg/injection, schedule: Q04DX003 (ip), vehicle: saline with Tween-80) was 90 % of control; the T/C (dose: 100.0 mg/kg/injection, schedule: Q04DX003 (ip), vehicle: saline with Tween-80) is 90 % of control.

`O=C1N(c2ccccc2)C(=O)N1c1ccccc1`: the T/C was 93 % of control under setting [13], 99 % of control under setting [6], 108 % of control under setting [7] and 97 % of control under setting [8].

With `O=C1OCC23CCC4C1C42CC1(CC3)OCCO1` (stereo not given), the T/C is 99 % of control (dose: 50.0 mg/kg/injection, schedule: Q01DX005 (ip), vehicle: saline); 101 % of control (dose: 100.0 mg/kg/injection, schedule: Q01DX005 (ip), vehicle: saline); 98 % of control (dose: 200.0 mg/kg/injection, schedule: Q01DX005 (ip), vehicle: saline).

Turning to `CC1(Cn2ccc(=O)[nH]c2=O)CC(C2(C)OCCO2)C(=O)O1` (stereo not given), the T/C under setting [11] was 102 % of control, the T/C under setting [12] is 102 % of control and the T/C under setting [14] is 101 % of control.

As to `c1ccc2c(-c3nccc4ccccc34)nccc2c1`, the T/C is 99 % of control under setting [1], 103 % of control under setting [2] and 92 % of control under setting [3].

For the compound `Nc1cc2c(cn1)[nH]c1ccccc12`, the T/C (dose: 12.5 mg/kg/injection, schedule: Q01DX009 (ip), vehicle: other) was 108 % of control; the T/C (dose: 25.0 mg/kg/injection, schedule: Q01DX009 (ip), vehicle: other) was 101 % of control; the T/C (dose: 50.0 mg/kg/injection, schedule: Q01DX009 (ip), vehicle: other) is 108 % of control; the T/C under setting [11] was 97 % of control; the T/C (dose: 100.0 mg/kg/injection, schedule: Q01DX009 (ip), vehicle: other) is 106 % of control; the T/C under setting [12] was 106 % of control.
